Holding throughout (type): in vivo
Test [1] relates to mice. Description: Elevated Plus Maze Test. The note with it: 2 mg/kg oral. The protocol: (§1) The following three tests on mice were conducted to investigate the anti-depressant and anti-anxiety activities of the herbal composition of the present invention.
(§2) In all these tests, the test item was the herbal composition as described in Table 2 in the form of a powder. The reference item was Imipramine hydrochloride manufactured by Sigma-Aldrich, USA (for forced swimming and tail suspension tests), and Diazepam tablets supplied by Tianjin Lisheng Pharmaceutical Co. Ltd, China (for elevated plus maze test). Male mice weighing 18-22 g at the start of the study were obtained from the Guangdong Medical Laboratory Animal Center, China.
(§3) At the beginning of each test, the test item was administrated at three dose levels of 69, 208, and 624 mg per kg of mouse by oral route (gastric gavage). For the Forced Swimming Test and Tail Suspension Test, Imipramine was administrated at the dose level of 20 mg per kg of mouse by oral route (gastric gavage), whereas Diazepam was administrated at the dose level of 2 mg per kg of mouse by oral route (gastric gavage). The Control group only received physiological saline orally by gastric gavage.
In this common test for assessing anxiety, the mouse is initially placed in the center of an elevated plus-shaped maze consisting of 4 arms (2 open arms & 2 enclosed arms), with its head facing one of the two open arms. The basic measure is to determine the unconditioned response of the tested mouse to a potentially dangerous environment and the preference of the tested mouse for dark, enclosed places over bright places, and exposed places. Typically, the tested mice would avoid entering into open arms due to anxiety, and mice administrated with anxiolytic […] treatments would have decreased aversion to heights and open spaces.
In this test, two batches of mice were used and in each batch, the mice were allotted at random to five groups, each consisting of ten animals.
The ratio of open arm entry is the frequency of the times the mice entering the open arms to the total frequency of entry into both open and enclosed arms (in percentages). Likewise, the ratio of time spent in open arms is the proportion of time spent by the mice in the open arms to the total times spent in both open and enclosed arms (in percentages).

The subject of test [2] is mice. Description: Forced Swimming Test. The note with it: 20 mg/kg oral. An excerpt: After an initial period of vigorous activity, the mice adopt a characteristic immobile posture which is readily identifiable.
The test system of test [3] is mice. The test can be described thus: Tail Suspension Test. The following applies: 20 mg/kg oral. The protocol:
as §1, §2, §3
When a mouse is suspended by its tail, its basic instinct first drives him to struggle, but this inescapable stress will eventually force it to develop an immobile posture. […]

The results in this text go back to US8252290B2, “Herbal composition for treatment of insomnia and other related disorders and a method of preparing the same” (Vita Green Health Products Company Limited, priority 2008, dated 2012).

Structures are written as SMILES. Structures can show the parent of a compound that is named as a salt.

`CN1C(=O)CN=C(c2ccccc2)c2cc(Cl)ccc21` [Diazepam]: the Head dipping in test [1] (First Batch, Control 16.2 ± 4.61) came out at 20.67 ± 10.42 times; in test [1] (Second Batch, p<0.01 vs Control 14.0 ± 4.64), 21.5 ± 6.15 times. Also, the “Ratio of time spent in open arms” value is recorded as 50.51 ± 10.58 % in test [1] (First Batch, p<0.01 vs Control 31.94 ± 10.82) and 47.52 ± 12.35 % in test [1] (Second Batch, p<0.01 vs Control 29.82 ± 8.88). Besides, the “Ratio of open arms entry” value in test [1] (First Batch, p<0.01 vs Control 36.16 ± 6.13) worked out at 51.27 ± 10.08 %; in test [1] (Second Batch, p<0.01 vs Control 33.66 ± 7.95) it was 52.48 ± 9.97 %.
For the compound `CN(C)CCCN1c2ccccc2CCc2ccccc21` [Imipramine, Imipramine hydrochloride], the Time of immobility in test [2] (First Batch, p<0.01 vs Control 93.19 ± 31.07) is 43.92 ± 17.63 s; in test [2] (Second Batch, p<0.01 vs Control 110.61 ± 28.03), 59.90 ± 17.40 s; in test [3] (First Batch, p<0.01 vs Control 115.89 ± 39.27), 60.08 ± 16.67 s; in test [3] (Second Batch, p<0.01 vs Control 100.76 ± 33.49) it was 52.66 ± 17.05 s.
